Assay results taken from the NIST ThermoML archive (doi:10.1021/je049609w).

What was measured:
[1] = xn = mol fraction of the nth substance listed; conditions: 101 kPa, Liquid
[2] = refractive index (Na D-line) (dimensionless); xn = mol fraction of the nth substance listed; conditions: 101 kPa, Liquid

Clc1ccccc1Cl [1,2-dichlorobenzene] + C1COCCO1
Conditions | mass density, 298.15 K [kg/m3] | mass density, 303.15 K [kg/m3] | mass density, 308.15 K [kg/m3] | refractive index, 298.15 K | refractive index, 303.15 K | refractive index, 308.15 K | speed of sound, 298.15 K [m/s] | viscosity, 298.15 K [mPa·s] | viscosity, 303.15 K [mPa·s] | viscosity, 308.15 K [mPa·s]
[1], x2 = 0 | 1300.9 | 1295.4 | 1289.7 | – | – | – | 1280 | 1.324 | 1.214 | 1.105
[1], x2 = 0.1025 | 1278.5 | 1272.9 | 1267.3 | – | – | – | 1287 | 1.311 | 1.203 | 1.095
[1], x2 = 0.203 | 1255.8 | 1250.1 | 1244.5 | – | – | – | 1293 | 1.298 | 1.191 | 1.085
[1], x2 = 0.2983 | 1232.9 | 1227.3 | 1221.6 | – | – | – | 1299 | 1.285 | 1.181 | 1.076
[1], x2 = 0.3965 | 1208.5 | 1202.8 | 1197.1 | – | – | – | 1305 | 1.273 | 1.169 | 1.066
[1], x2 = 0.4955 | 1182.5 | 1176.9 | 1171.2 | – | – | – | 1312 | 1.26 | 1.158 | 1.056
[1], x2 = 0.596 | 1154.9 | 1149.3 | 1143.6 | – | – | – | 1319 | 1.247 | 1.147 | 1.047
[1], x2 = 0.6976 | 1125.6 | 1120 | 1114.3 | – | – | – | 1325 | 1.234 | 1.135 | 1.037
[1], x2 = 0.7992 | 1094.7 | 1089.1 | 1083.4 | – | – | – | 1332 | 1.221 | 1.124 | 1.027
[1], x2 = 0.8971 | 1063.3 | 1057.7 | 1051.9 | – | – | – | 1338 | 1.209 | 1.113 | 1.018
[2], x2 = 0 | – | – | – | 1.5499 | 1.5476 | 1.545 | – | – | – | –
[2], x2 = 0.1025 | – | – | – | 1.5374 | 1.5333 | 1.5325 | – | – | – | –
[2], x2 = 0.203 | – | – | – | 1.5269 | 1.5246 | 1.5224 | – | – | – | –
[2], x2 = 0.2983 | – | – | – | 1.5171 | 1.5148 | 1.5125 | – | – | – | –
[2], x2 = 0.3965 | – | – | – | 1.5048 | 1.5023 | 1.4998 | – | – | – | –
[2], x2 = 0.4955 | – | – | – | 1.4924 | 1.4902 | 1.4879 | – | – | – | –
[2], x2 = 0.596 | – | – | – | 1.4799 | 1.4768 | 1.4738 | – | – | – | –
[2], x2 = 0.6976 | – | – | – | 1.4652 | 1.4628 | 1.4604 | – | – | – | –
[2], x2 = 0.7992 | – | – | – | 1.4513 | 1.4484 | 1.4455 | – | – | – | –
[2], x2 = 0.8971 | – | – | – | 1.4365 | 1.4337 | 1.4308 | – | – | – | –

C1COCCO1 [1,4-dioxane] + CC(=O)N(C)C
x1 = 1
Conditions | mass density, 298.15 K [kg/m3] | mass density, 303.15 K [kg/m3] | mass density, 308.15 K [kg/m3] | refractive index, 298.15 K | refractive index, 303.15 K | refractive index, 308.15 K | speed of sound, 298.15 K [m/s] | viscosity, 298.15 K [mPa·s] | viscosity, 303.15 K [mPa·s] | viscosity, 308.15 K [mPa·s]
[1] | 1028.6 | 1022.9 | 1017.2 | – | – | – | 1345 | 1.196 | 1.095 | 1.008
[2] | – | – | – | 1.4203 | 1.4164 | 1.4145 | – | – | – | –

C1COCCO1 [1,4-dioxane] + CCCCO
Conditions | mass density, 298.15 K [kg/m3] | mass density, 303.15 K [kg/m3] | mass density, 308.15 K [kg/m3] | refractive index, 298.15 K | refractive index, 303.15 K | refractive index, 308.15 K | speed of sound, 298.15 K [m/s] | viscosity, 298.15 K [mPa·s] | viscosity, 303.15 K [mPa·s] | viscosity, 308.15 K [mPa·s]
[1], x1 = 0.1014 | 826.1 | 822.1 | 818.1 | – | – | – | 1249 | 2.15 | 1.926 | 1.703
[1], x1 = 0.2015 | 846.7 | 842.4 | 838.1 | – | – | – | 1260 | 1.757 | 1.602 | 1.447
[1], x1 = 0.2982 | 866.9 | 862.4 | 858 | – | – | – | 1270 | 1.489 | 1.347 | 1.204
[1], x1 = 0.3995 | 888.7 | 884 | 879.5 | – | – | – | 1281 | 1.327 | 1.196 | 1.066
[1], x1 = 0.4945 | 909.6 | 904.8 | 900.1 | – | – | – | 1291 | 1.241 | 1.13 | 1.03
[1], x1 = 0.5993 | 933.5 | 928.4 | 923.4 | – | – | – | 1301 | 1.177 | 1.081 | 0.985
[1], x1 = 0.7023 | 957.5 | 952.3 | 947.1 | – | – | – | 1310 | 1.153 | 1.063 | 0.972
[1], x1 = 0.802 | 981.1 | 975.8 | 970.4 | – | – | – | 1320 | 1.162 | 1.07 | 0.979
[1], x1 = 0.9017 | 1004.9 | 999.5 | 994 | – | – | – | 1332 | 1.17 | 1.078 | 0.986
[1], x1 = 1 | 1028.6 | 1022.9 | 1017.2 | – | – | – | 1345 | 1.196 | 1.095 | 1.008
[2], x1 = 0.1014 | – | – | – | 1.3999 | 1.3976 | 1.3952 | – | – | – | –
[2], x1 = 0.2015 | – | – | – | 1.4016 | 1.3992 | 1.3968 | – | – | – | –
[2], x1 = 0.2982 | – | – | – | 1.4032 | 1.4008 | 1.3984 | – | – | – | –
[2], x1 = 0.3995 | – | – | – | 1.4052 | 1.4028 | 1.4003 | – | – | – | –
[2], x1 = 0.4945 | – | – | – | 1.4071 | 1.4046 | 1.4022 | – | – | – | –
[2], x1 = 0.5993 | – | – | – | 1.4095 | 1.4069 | 1.4044 | – | – | – | –
[2], x1 = 0.7023 | – | – | – | 1.4119 | 1.4094 | 1.4068 | – | – | – | –
[2], x1 = 0.802 | – | – | – | 1.4145 | 1.4118 | 1.4093 | – | – | – | –
[2], x1 = 0.9017 | – | – | – | 1.4172 | 1.4145 | 1.4118 | – | – | – | –
[2], x1 = 1 | – | – | – | 1.4203 | 1.4164 | 1.4145 | – | – | – | –

C1COCCO1 [1,4-dioxane] + CCOC(=O)CC(=O)OCC
x1 = 1
Conditions | mass density, 298.15 K [kg/m3] | mass density, 303.15 K [kg/m3] | mass density, 308.15 K [kg/m3] | refractive index, 298.15 K | refractive index, 303.15 K | refractive index, 308.15 K | speed of sound, 298.15 K [m/s] | viscosity, 298.15 K [mPa·s] | viscosity, 303.15 K [mPa·s] | viscosity, 308.15 K [mPa·s]
[1] | 1028.6 | 1022.9 | 1017.2 | – | – | – | 1345 | 1.196 | 1.095 | 1.008
[2] | – | – | – | 1.4203 | 1.4164 | 1.4145 | – | – | – | –
